Calls of active or inactive are those of the source. The rule behind the calls is not given here.

The subject of data set [1] is Mus musculus. Briefly: Induction of hyperactivity in Swiss Webster mouse assessed as grooming at 0.025 to 0.3 mmol/kg, ip up to 90 mins. The class given is functional, organism-based.
Data set [2] concerns Mus musculus. Briefly: Induction of hyperactivity in Swiss Webster mouse assessed as pilomotor erection at 0.025 to 0.3 mmol/kg, ip up to 90 mins. The format is functional, organism-based.
In data set [3] the test system is Mus musculus. Briefly: Induction of spontaneous activity in Swiss Webster mouse assessed as spontaneous activity counts at 0.225 mmol/kg, ip measured over 90 mins. The format is functional.
Data set [4] deals with Mus musculus. In words: Induction of spontaneous activity in Swiss Webster mouse assessed as spontaneous activity counts at 0.075 mmol/kg, ip measured over 90 mins. The class given is functional.
Data set [5] has as its system Mus musculus. In words: Induction of hyperactivity in Swiss Webster mouse assessed as salivation at 0.025 to 0.3 mmol/kg, ip up to 90 mins. The class given is functional, organism-based.
Data set [6] is described as follows: Octanol-water partition coefficient, log P of the compound. The format is physicochemical.
Data set [7] relates to Mus musculus. Briefly: Induction of hyperactivity in Swiss Webster mouse assessed as sniffing at 0.025 to 0.3 mmol/kg, ip up to 90 mins. The format is functional, organism-based.
In data set [8] the test system is Mus musculus. In words: Induction of hyperactivity in Swiss Webster mouse assessed as exploratory behavior at 0.025 to 0.3 mmol/kg, ip up to 90 mins. The format is functional, organism-based.
The test system of data set [9] is Mus musculus. Briefly: Induction of spontaneous activity in Swiss Webster mouse assessed as spontaneous activity counts at 0.025 mmol/kg, ip measured over 90 mins. The format is functional.
Data set [10] deals with Mus musculus. Briefly: Induction of hyperactivity in Swiss Webster mouse assessed as exopthalmia at 0.025 to 0.3 mmol/kg, ip up to 90 mins. The format is functional, organism-based.
The subject of data set [11] is Mus musculus. Briefly: Toxicity in Swiss Webster mouse assessed as mortality at 0.675 mmol/kg, ip after 5 mins. The following applies: in vivo. The class given is organism-based.
In data set [12] the test system is Mus musculus. Briefly: Toxicity in Swiss Webster mouse assessed as symmetric clonic convulsions with vocalization at 0.675 mmol/kg, ip after 2 to 3 mins. The class given is organism-based. The conditions noted are these: in vivo.
Data set [13] has as its system Mus musculus. Briefly: Induction of hyperactivity in Swiss Webster mouse assessed as exopthalmia at 0.225 to 0.3 mmol/kg, ip up to 90 mins. The class given is functional, organism-based.
Data set [14] deals with Mus musculus. In words: Induction of hyperactivity in Swiss Webster mouse assessed as grooming at 0.225 to 0.3 mmol/kg, ip up to 90 mins. The class given is functional, organism-based.
Data set [15] is described as follows: Toxicity in ip dosed Swiss Webster mouse after 5 mins. The class given is organism-based. The conditions noted are these: in vivo.
Data set [16] deals with Mus musculus. In words: Induction of spontaneous activity in Swiss Webster mouse assessed as spontaneous activity counts at 0.30 mmol/kg, ip measured over 90 mins. The format is functional.
Data set [17] relates to Mus musculus. Briefly: Toxicity in Swiss Webster mouse assessed as ataxia at 0.675 mmol/kg, ip after 2 to 3 mins. The class given is organism-based. The following applies: in vivo.
The test system of data set [18] is Mus musculus. In words: Effect on Swiss Webster mouse assessed as sleeping at 0.025 to 0.3 mmol/kg, ip. The format is ADME, organism-based. The conditions noted are these: in vivo.
Data set [19] has as its system Mus musculus. In words: Induction of hyperactivity in Swiss Webster mouse assessed as salivation at 0.225 to 0.3 mmol/kg, ip up to 90 mins. The class given is functional, organism-based.
Data set [20] deals with Mus musculus. In words: Toxicity in Swiss Webster mouse assessed as tremor at 0.675 mmol/kg, ip after 2 to 3 mins. The class given is organism-based. The conditions noted are these: in vivo.
The subject of data set [21] is Mus musculus. In words: Induction of hyperactivity in Swiss Webster mouse assessed as grooming at <0.3 mmol/kg, ip up to 90 mins. The format is functional, organism-based.
In data set [22] the test system is Mus musculus. In words: Effect on Swiss Webster mouse assessed as sleeping at 0.3 mmol/kg, ip after 20 mins. The class given is ADME, organism-based. The following applies: in vivo.
The subject of data set [23] is Mus musculus. Briefly: Toxicity in Swiss Webster mouse assessed as occasional tremor at 0.3 mmol/kg, ip up to 20 mins. The format is organism-based. The conditions noted are these: in vivo.
Data set [24] has as its system Mus musculus. In words: Induction of hyperactivity in Swiss Webster mouse assessed as sniffing at <0.3 mmol/kg, ip up to 90 mins. The format is functional, organism-based.
Data set [25] in a line: Chemical stability of the compound at 0.1 M at pH 5.3 at 37 degC after 24 hrs by 1H NMR spectroscopy. The format is physicochemical. The following applies: buffer, pH 5.3, 24 h.
The test system of data set [26] is Mus musculus. Briefly: Toxicity in Swiss Webster mouse assessed as depression at <0.3 mmol/kg, ip up to 90 mins. The following applies: in vivo, 1.5 h. The format is organism-based.
The subject of data set [27] is Mus musculus. In words: Toxicity in Swiss Webster mouse assessed as clonic convulsions at 0.675 mmol/kg, ip after 8 to 10 mins. The conditions noted are these: in vivo. The format is organism-based.
Data set [28] concerns Mus musculus. In words: Induction of hyperactivity in Swiss Webster mouse assessed as salivation at <0.3 mmol/kg, ip up to 90 mins. The class given is functional, organism-based.
For data set [29], the system named is Mus musculus. Briefly: Effect on Swiss Webster mouse assessed as sleeping at 0.675 mmol/kg, ip after 1 hr. The class given is ADME, organism-based. The following applies: in vivo.
The subject of data set [30] is Mus musculus. In words: Toxicity in Swiss Webster mouse assessed as clonic convulsions at 0.3 mmol/kg, ip up to 20 mins. The conditions noted are these: in vivo. The format is organism-based.
In data set [31] the test system is Mus musculus. Briefly: Toxicity in Swiss Webster mouse assessed as mortality at 0.338 mmol/kg, ip after 5 mins. The class given is organism-based. The conditions noted are these: in vivo.
The test system of data set [32] is Mus musculus. In words: Toxicity in Swiss Webster mouse assessed as tremor at 0.675 mmol/kg, ip after 8 to 10 mins. The class given is organism-based. The following applies: in vivo.
Data set [33] concerns Mus musculus. In words: Effect on Swiss Webster mouse assessed as sleeping at <0.3 mmol/kg, ip up to 90 mins. The following applies: in vivo, 1.5 h. The format is ADME, organism-based.
Data set [34] concerns Mus musculus. In words: Induction of hyperactivity in Swiss Webster mouse assessed as piloerection at <0.3 mmol/kg, ip up to 90 mins. The class given is functional, organism-based.
Data set [35] relates to Mus musculus. Briefly: Toxicity in Swiss Webster mouse assessed as recovery at 0.675 mmol/kg, ip after 30 mins. The conditions noted are these: in vivo, 0.5 h. The class given is organism-based.
The subject of data set [36] is Mus musculus. Briefly: Induction of hyperactivity in Swiss Webster mouse assessed as exopthalmia at <0.3 mmol/kg, ip up to 90 mins. The format is functional, organism-based.
For data set [37], the system named is Mus musculus. In words: Induction of hyperactivity in Swiss Webster mouse assessed as exploratory behavior at <0.3 mmol/kg, ip up to 90 mins. The class given is functional, organism-based.

A word on the logP: it is the decadic logarithm of the partition coefficient of the neutral form, usually between octanol and water. For `CC(N)Cc1ccc2c(c1)OCO2` (centres undefined) [TENAMFETAMINE], the result in the data set on Mus musculus [1], in the data set with Mus musculus [2], with Mus musculus [5], with Mus musculus [7], in the data set with Mus musculus [8] and with Mus musculus [10] was Active. Further, the results for the Activity in the data set with Mus musculus [3], in the data set on Mus musculus [4] and in the data set on Mus musculus [9] were 105 min⁻¹, 276 min⁻¹ and 64 min⁻¹, respectively. Further, the logP in data set [6] was 1.64.
Consider `CC(N)Cc1ccc2c(c1)OC(C)O2` (centres undefined), for which the result in the data set with Mus musculus [1], in the data set with Mus musculus [2], with Mus musculus [13], with Mus musculus [5], in the data set with Mus musculus [14] and in the data set with Mus musculus [7] was Active. Moreover, the outcome in the data set with Mus musculus [8], in the data set on Mus musculus [19] and in the data set on Mus musculus [10] was Active. Besides, the Activity result was “Toxic” in the data set with Mus musculus [11]; 94 min⁻¹ in the data set with Mus musculus [3]; 25 min⁻¹ with Mus musculus [4]; “Toxic” in the data set with Mus musculus [12]; 192 min⁻¹ in the data set on Mus musculus [16]; “Toxic” with Mus musculus [17]. For the same molecule, the Activity entry with Mus musculus [18] was “Non-toxic”; in the data set on Mus musculus [20] it was “Toxic”; in the data set on Mus musculus [9], 39 min⁻¹. The same molecule yielded a logP in data set [6] of 2.1. This molecule also yielded an MTD at 5 min in [15] of 300 µmol/kg.
In the case of `CC(N)Cc1ccc2c(c1)OC(C)(C)O2` (centres undefined), the Activity result in the data set on Mus musculus [11] is “Toxic”; in the data set on Mus musculus [3], 17 min⁻¹; in the data set on Mus musculus [4] it was 27 min⁻¹; in the data set on Mus musculus [22], “Non-toxic”; with Mus musculus [23] it was “Toxic”; with Mus musculus [26], “Toxic”. Further, the Activity entry in the data set on Mus musculus [27] is “Toxic”; with Mus musculus [16], 33 min⁻¹; in the data set on Mus musculus [29], “Non-toxic”; in the data set with Mus musculus [30] it was “Toxic”; with Mus musculus [31], “Toxic”; with Mus musculus [32] it was “Toxic”. Also, the figures for the Activity entry with Mus musculus [33], in the data set with Mus musculus [35] and in the data set with Mus musculus [9] were “Non-toxic”, “Non-toxic” and 30 min⁻¹, respectively. For the same molecule, the outcome in the data set on Mus musculus [21], in the data set on Mus musculus [24], with Mus musculus [28], in the data set with Mus musculus [34], in the data set with Mus musculus [36] and in the data set on Mus musculus [37] was inactive. Also, the logP in [6] amounted to 2.6. Also, in data set [25], the Stability result is “Stable”. In data set [15], this molecule showed an MTD at 5 min of 338 µmol/kg.

The values are drawn from ChEMBL document CHEMBL3244232, “Steric effects of substituents on phenethylamine hallucinogens. 3,4-(Methylenedioxy)amphetamine analogues alkylated on the dioxole ring” (J Med Chem, 1979).
